The EC50 is the concentration giving half of the maximal effect. A high value points to a need for much substance.

SMILES strings stand for the structures.

This assay addresses T1, GPR119 receptor (Mesocricetus auratus, UniProt A0A1U8CD06).
T1 construct: which endogenously express the GPR119 receptor; host or cells: HIT-T15 hamster pancreatic islet cells
T1 sequence (A0A1U8CD06 1-334): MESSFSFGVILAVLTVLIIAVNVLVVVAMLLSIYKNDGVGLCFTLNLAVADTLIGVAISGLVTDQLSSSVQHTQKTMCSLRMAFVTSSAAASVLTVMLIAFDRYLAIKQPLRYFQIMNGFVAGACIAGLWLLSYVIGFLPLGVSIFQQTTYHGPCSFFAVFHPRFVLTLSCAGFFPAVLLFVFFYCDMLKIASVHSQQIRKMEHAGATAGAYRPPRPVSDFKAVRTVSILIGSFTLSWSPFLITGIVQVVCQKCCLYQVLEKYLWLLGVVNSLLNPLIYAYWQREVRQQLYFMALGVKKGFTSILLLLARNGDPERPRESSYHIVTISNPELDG
Description: cAMP assay in HIT-T15 hamster pancreatic islet cells (functional agonist activity). Conditions: HIT-T15 cells endogenously expressing GPR119; 30 min at 25° C.; intracellular cAMP. It is filed as cell-based. The method, then: The functional agonist activities of compounds of the invention were characterized using a cAMP assay in HIT-T15 hamster pancreatic islet cells (American Type Culture Collection, Manassas, Va., USA) which endogenously express the GPR119 receptor. The cells were cultured in Kaighn's modification of Ham's F12 medium (Invitrogen Corporation, Carlsbad, Calif., USA) containing 10% horse serum, 2.5% FBS, and 1% Pen/Strep and grown in 225 cm^2 tissue culture flasks until they reached 75-85% confluence.
The cells were harvested 24 h prior to assay with 5 ml Versene®, washed with Kaighn/F12 medium and then plated into white 384-well plates (9000 cells/well) containing Kaighn/F12 medium. Prior to assay, the culture medium was replaced with a Kaighn/F12 medium without phenol red (50 μL/well) containing 0.5 mM 3-isobutyl-1-methylxanthine, 0.5 mg/ml BSA. The cells were incubated in the dark for 30 min at 25° C. in the absence or presence of varying concentrations of agonist (1 μL, 100% DMSO). The incubation media was discarded and replaced with the assay lysis buffer (50 μL/well) provided in the Tropix cAMP-Screen® kit (Applied Biosystems, Foster City, Calif., USA) and the plates incubated for 45 min at 37° C. The intracellular levels of cAMP generated in the HIT-T 15 cells were measured using the Tropix kit. In brief, 20 μL of the lysate was transferred into pre-coated antibody plates (384-well; Tropix kit) along with 10 μL of alkaline phosphatase conjugate and 20 μL of anti-cAMP antibody and the plates were incubated for 1 h at room temperature while shaking. The plates were then washed 5 times with wash buffer (70 μL) and tapped dry. CSPD®/Sapphire-II™ RTU substrate/enhancer solution (Applied Biosystems, Foster City, Calif., USA; 30 μL) was added and the plates were incubated for 45 min at room temperature while shaking. The signal generated was measured using a Wallac Victor V Luminometer (PerkinElmer Life And Analytical Sciences, Inc., Waltham, Mass., USA; 1 sec/well). EC50 values were calculated using the XLFit program (ID Business Solutions Ltd., Guildford, Surrey, UK).
(Changes in cAMP serve as a functional read-out for many G protein-coupled receptors.)
With `CC(C)(C)OC(=O)N1CCC(n2ncc3c(Oc4cc(F)c(F)cc4C#N)ncnc32)CC1` [Example 50, 4-[4-(2-Cyano-4,5-difluoro-phenoxy)-pyrazolo[3,4-d]pyrimidin-1-yl]-piperidine-1-carboxylic acid tert-butyl ester], the response was half-maximal at 0.69 µM (EC50). In the case of `CC(C)c1noc(N2CCC(n3ncc4c(Oc5ccc(S(C)(=O)=O)c(F)c5)ncnc43)CC2)n1` [Example 128, 4-(3-Fluoro-4-methanesulfonyl-phenoxy)-1-[1-(3-isopropyl-[1,2,4]oxadiazol-5-yl)-piperidin-4-yl]-1H-pyrazolo[3,4-d]pyrimidine], the EC50 is 0.16 µM.

`CC(C)(C)C(=O)N1CCC(n2ncc3c(Oc4ccc(S(C)(=O)=O)cc4)ncnc32)CC1` [Example 138, 1-{4-[4-(4-Methanesulfonyl-phenoxy)-pyrazolo[3,4-d]pyrimidin-1-yl]-piperidin-1-yl}-2,2-dimethyl-propan-1-one] displayed an EC50 of 0.78 µM. Regarding `Cc1nc(-c2ccc(Oc3ncnc4c3cnn4C3CCN(C(=O)OC(C)(C)C)CC3)cc2)no1` [Example 85, 4-{4-[4-(5-Methyl-[1,2,4]oxadiazol-3-yl)-phenoxy]-pyrazolo[3,4-d]pyrimidin-1-yl}-piperidine-1-carboxylic acid tert-butyl ester], the EC50 was 0.55 µM.

`CC(C)(C)OC(=O)N1CCCC(n2ncc3c(Oc4ccc(S(C)(=O)=O)cc4)ncnc32)C1` (racemic) [Example 87, 3-[4-(4-Methanesulfonyl-phenoxy)-pyrazolo[3,4-d]pyrimidin-1-yl]-piperidine-1-carboxylic acid tert-butyl ester] showed an EC50 of 0.37 µM.

`CS(=O)(=O)c1ccc(Oc2ncnc3c2cnn3C2CCN(Cc3ccccc3O)CC2)cc1` [Example 164, 2-{4-[4-(4-Methanesulfonyl-phenoxy)-pyrazolo[3,4-d]pyrimidin-1-yl]-piperidin-1-ylmethyl}-phenol] yielded an EC50 of 0.36 µM. Molecule `CC(C)(C)OC(=O)N1CCC(n2ncc3c(Oc4cccnc4C#N)ncnc32)CC1` [Example 99, 4-[4-(2-Cyano-pyridin-3-yloxy)-pyrazolo[3,4-d]pyrimidin-1-yl]-piperidine-1-carboxylic acid tert-butyl ester] returned an EC50 of 0.2 µM. Consider `Cc1nnnn1-c1ccc(Oc2ncnc3c2cnn3C2CCN(C(=O)OC(C)C)CC2)cc1` [Example 26, 4-{4-[4-(5-Methyl-tetrazol-1-yl)-phenoxy]-pyrazolo[3,4-d]pyrimidin-1-yl}-piperidine-1-carboxylic acid isopropyl ester], for which the EC50 worked out at 0.95 µM. For `CC(C)(C)OC(=O)N1CCC(n2ncc3c(Oc4ccc(Cl)c(C(F)(F)F)c4)ncnc32)CC1` [Example 55, 4-[4-(4-Chloro-3-trifluoromethyl-phenoxy)-pyrazolo[3,4-d]pyrimidin-1-yl]-piperidine-1-carboxylic acid tert-butyl ester] the value was 0.15 µM. The molecule `CC(C)(C)OC(=O)N1CCC(n2ncc3c(Oc4ccc5sccc5c4)ncnc32)CC1` [Example 77, 4-[4-(Benzo[b]thiophen-5-yloxy)-pyrazolo[3,4-d]pyrimidin-1-yl]-piperidine-1-carboxylic acid tert-butyl ester] showed an EC50 of 0.99 µM.

Regarding `CS(=O)(=O)c1ccc(Oc2ncnc3c2cnn3C2CCN(C(=O)OC(C(F)(F)F)C(F)(F)F)CC2)cc1` [Example 112, 4-[4-(4-Methanesulfonyl-phenoxy)-pyrazolo[3,4-d]pyrimidin-1-yl]-piperidine-1-carboxylic acid 2,2,2-trifluoro-1-trifluoromethyl-ethyl ester], a half-maximal effect (EC50) was put at 0.5 µM.

On to `CC(=O)Nc1ccc(Oc2ncnc3c2cnn3C2CCN(C(=O)OC(C)C)CC2)cc1` [Example 25, 4-[4-(4-Acetylamino-phenoxy)-pyrazolo[3,4-d]pyrimidin-1-yl]-piperidine-1-carboxylic acid isopropyl ester], for which the EC50 stood at 0.46 µM. Consider `CCOc1ccc(Oc2ncnc3c2cnn3C2CCN(C(=O)OC(C)(C)C)CC2)c(F)c1` [Example 43, 4-[4-(4-Ethoxy-2-fluoro-phenoxy)-pyrazolo[3,4-d]pyrimidin-1-yl]-piperidine-1-carboxylic acid tert-butyl ester], for which a half-maximal response (EC50) required 0.018 µM.

Take `CC(C)(C)OC(=O)N1CCC(n2ncc3c(Oc4ccc(C#N)c(F)c4)ncnc32)CC1` [Example 48, 4-[4-(4-Cyano-3-fluoro-phenoxy)-pyrazolo[3,4-d]pyrimidin-1-yl]-piperidine-1-carboxylic acid tert-butyl ester]: the EC50 amounted to 0.22 µM. Molecule `CS(=O)(=O)c1ccc(Oc2ncnc3c2cnn3C2CCN(C(=O)OCC(Cl)(Cl)Cl)CC2)cc1` [Example 115, 4-[4-(4-Methanesulfonyl-phenoxy)-pyrazolo[3,4-d]pyrimidin-1-yl]-piperidine-1-carboxylic acid 2,2,2-trichloro-ethyl ester] displayed an EC50 of 0.018 µM. `CS(=O)(=O)c1ccc(Oc2ncnc3c2cnn3C2CCN(C(=O)OC(CF)CF)CC2)cc1` [Example 109, 4-[4-(4-Methanesulfonyl-phenoxy)-pyrazolo[3,4-d]pyrimidin-1-yl]-piperidine-1-carboxylic acid 2-fluoro-1-fluoromethyl-ethyl ester] showed an EC50 of 0.68 µM. In turn, `Cc1cc(C(=O)N2CCC(n3ncc4c(Oc5ccc(S(C)(=O)=O)cc5)ncnc43)CC2)nn1C` [Example 152, (1,5-Dimethyl-1H-pyrazol-3-yl)-{4-[4-(4-methanesulfonyl-phenoxy)-pyrazolo[3,4-d]pyrimidin-1-yl]-piperidin-1-yl}-methanone] registered an EC50 of 0.39 µM.

Molecule `CS(=O)(=O)c1ccc(Oc2ncnc3c2cnn3C2CCN(C(=O)c3ccccc3)CC2)cc1` [Example 149, {4-[4-(4-Methanesulfonyl-phenoxy)-pyrazolo[3,4-d]pyrimidin-1-yl]-piperidin-1-yl}-phenylmethanone] yielded an EC50 of 1.7 µM. Consider `CC(C)OC(=O)N1CCC(n2ncc3c(Oc4cc(F)c(F)cc4F)ncnc32)CC1` [Example 16, 4-[4-(2,4,5-Trifluoro-phenoxy)-pyrazolo[3,4-d]pyrimidin-1-yl]-piperidine-1-carboxylic acid isopropyl ester], for which the EC50 is 0.21 µM. For `Cc1ncccc1Oc1ncnc2c1cnn2C1CCN(C(=O)Oc2ccccc2)CC1` [Example 122, 4-[4-(2-Methyl-pyridin-3-yloxy)-pyrazolo[3,4-d]pyrimidin-1-yl]-piperidine-1-carboxylic acid phenyl ester] the value was 1.1 µM; for `CC(C)(C)OC(=O)N1CCC(n2ncc3c(Oc4ccccc4F)ncnc32)CC1` [Example 32, 4-[4-(2-Fluoro-phenoxy)-pyrazolo[3,4-d]pyrimidin-1-yl]-piperidine-1-carboxylic acid tert-butyl ester], 0.19 µM. For `Cc1ncccc1Oc1ncnc2c1cnn2C1CCN(C(=O)OC2CCCCC2)CC1` [Example 125, 4-[4-(2-Methyl-pyridin-3-yloxy)-pyrazolo[3,4-d]pyrimidin-1-yl]-piperidine-1-carboxylic acid cyclohexyl ester], the EC50 was determined as 0.57 µM. Molecule `CC(C)(C)C(=O)N1CCC(n2ncc3c(Oc4cc(F)c(F)cc4F)ncnc32)CC1` [Example 137, 2,2-Dimethyl-1-{4-[4-(2,4,5-trifluoro-phenoxy)-pyrazolo[3,4-d]pyrimidin-1-yl]-piperidin-1-yl}-propan-1-one] displayed an EC50 of 1.6 µM.

The values above are taken from patent US8188098B2, “GPR119 receptor agonists” (Hoffmann-La Roche Inc., priority 2008, dated 2012).
